Type in all cases: functional
One assay has as its system Cryptococcus neoformans. Put plainly: Antifungal activity against Cryptococcus neoformans after 72 hrs by serial dilution method.
In a further assay the test system is Nakaseomyces glabratus. Description: Antifungal activity against Candida glabrata after 24 hrs by serial dilution method.
For the next assay, the system named is Candida parapsilosis. Put plainly: Antifungal activity against Candida parapsilosis ATCC 22019 after 24 hrs by serial dilution method. The note with it: Lodderomyces parapsilosis, ATCC 22019, 24 h.
The test system of assay [1] is Candida albicans. Description: Antifungal activity against Candida albicans SC5314 after 24 hrs by serial dilution method. Particulars: SC5314, 24 h.
The subject of assay [2] is Candida albicans. Put plainly: Antifungal activity against Candida albicans Y0109 after 24 hrs by serial dilution method. The note with it: Y0109, 24 h.
The test system of another assay is Aspergillus fumigatus. Description: Antifungal activity against Aspergillus fumigatus after 48 hrs by serial dilution method.
A further assay deals with Nannizzia gypsea. Description: Antifungal activity against Microsporum gypseum by serial dilution method.
Another assay has as its system Trichophyton rubrum. Description: Antifungal activity against Trichophyton rubrum by serial dilution method.

Here are results for 14 molecules from ChEMBL document CHEMBL4184109, “Design, synthesis, and structure-activity relationship studies of novel tetrazole antifungal agents with potent activity, broad antifungal spectrum and high selectivity” (Bioorg Med Chem Lett, 2018).

≈ marks a conversion by molar mass, not a printed value.

As to `O=c1n(-c2ccc(C(F)(F)C(O)(Cn3cnnn3)c3ccc(F)cc3F)nc2)cnn1CC1CC1` (stereo not drawn), the MIC80 was 4 µg/mL (≈ 8.16 µM) against Cryptococcus neoformans; 4 µg/mL (≈ 8.16 µM) against Nakaseomyces glabratus; 0.25 µg/mL (≈ 0.51 µM) with Candida parapsilosis; 0.5 µg/mL (≈ 1.02 µM) in the assay with Candida albicans [1]; 0.5 µg/mL (≈ 1.02 µM) in the assay on Candida albicans [2]; over 8 µg/mL against Aspergillus fumigatus.
Consider `CCC(C)n1ncn(-c2ccc(C(F)(F)C(O)(Cn3cnnn3)c3ccc(F)cc3F)nc2)c1=O` (stereo not drawn), for which the MIC80 with Cryptococcus neoformans was 4 µg/mL (≈ 8.12 µM); against Nakaseomyces glabratus it was 2 µg/mL (≈ 4.06 µM); in the assay on Candida parapsilosis it was 0.25 µg/mL (≈ 0.508 µM); against Candida albicans [1] it was 1 µg/mL (≈ 2.03 µM); against Candida albicans [2] it was 1 µg/mL (≈ 2.03 µM); in the assay with Aspergillus fumigatus, over 8 µg/mL.
On to `CSc1ccc(Cn2ncn(-c3ccc(C(F)(F)C(O)(Cn4cnnn4)c4ccc(F)cc4F)nc3)c2=O)cc1` (stereo not drawn), for which the MIC80 is 2 µg/mL (≈ 3.49 µM) in the assay with Cryptococcus neoformans; 4 µg/mL (≈ 6.99 µM) against Nakaseomyces glabratus; 4 µg/mL (≈ 6.99 µM) with Candida parapsilosis; 4 µg/mL (≈ 6.99 µM) against Candida albicans [1]; 4 µg/mL (≈ 6.99 µM) with Candida albicans [2]; over 64 µg/mL in the assay with Aspergillus fumigatus.
On to `O=c1n(-c2ccc(C(F)(F)C(O)(Cn3cnnn3)c3ccc(F)cc3F)nc2)cnn1Cc1cccnc1` (stereo not drawn), for which the MIC80 is 2 µg/mL (≈ 3.79 µM) against Cryptococcus neoformans; 4 µg/mL (≈ 7.58 µM) against Nakaseomyces glabratus; 8 µg/mL (≈ 15.2 µM) with Candida parapsilosis; 8 µg/mL (≈ 15.2 µM) with Candida albicans [1]; 4 µg/mL (≈ 7.58 µM) against Candida albicans [2]; over 64 µg/mL against Aspergillus fumigatus.
As for `Cc1ccc(Cn2ncn(-c3ccc(C(F)(F)C(O)(Cn4cnnn4)c4ccc(F)cc4F)nc3)c2=O)cc1` (stereo not drawn), the MIC80 against Cryptococcus neoformans is 2 µg/mL (≈ 3.7 µM); in the assay on Nakaseomyces glabratus, 2 µg/mL (≈ 3.7 µM); in the assay on Candida parapsilosis, 0.25 µg/mL (≈ 0.463 µM); against Candida albicans [1], 1 µg/mL (≈ 1.85 µM); in the assay on Candida albicans [2], 1 µg/mL (≈ 1.85 µM); with Aspergillus fumigatus, over 8 µg/mL.
Regarding `O=c1n(-c2ccc(C(F)(F)C(O)(Cn3cnnn3)c3ccc(F)cc3F)nc2)cnn1CCO` (stereo not drawn), the MIC80 against Cryptococcus neoformans, against Nakaseomyces glabratus, against Candida parapsilosis, in the assay with Candida albicans [1], against Candida albicans [2] and against Aspergillus fumigatus was over 8 µg/mL in each case.
On to `CCC(CC)n1ncn(-c2ccc(C(F)(F)C(O)(Cn3cnnn3)c3ccc(F)cc3F)nc2)c1=O` (stereo not drawn), for which the MIC80 in the assay on Cryptococcus neoformans was 4 µg/mL (≈ 7.9 µM); in the assay on Nakaseomyces glabratus, 1 µg/mL (≈ 1.97 µM); in the assay on Candida parapsilosis, 0.25 µg/mL (≈ 0.494 µM); in the assay on Candida albicans [1], 1 µg/mL (≈ 1.97 µM); in the assay on Candida albicans [2], 2 µg/mL (≈ 3.95 µM); with Aspergillus fumigatus, over 8 µg/mL.
As for `CC(O)Cn1ncn(-c2ccc(C(F)(F)C(O)(Cn3cnnn3)c3ccc(F)cc3F)nc2)c1=O` (stereo not drawn), the MIC80 was 8 µg/mL (≈ 16.2 µM) against Cryptococcus neoformans; over 8 µg/mL in the assay with Nakaseomyces glabratus; 8 µg/mL (≈ 16.2 µM) in the assay on Candida parapsilosis; over 8 µg/mL with Candida albicans [1]; over 8 µg/mL in the assay on Candida albicans [2]; over 8 µg/mL with Aspergillus fumigatus.
Take `O=c1n(-c2ccc(C(F)(F)C(O)(Cn3cnnn3)c3ccc(F)cc3F)nc2)cnn1Cc1ccccc1` (stereo not drawn): the MIC80 against Cryptococcus neoformans was 4 µg/mL (≈ 7.6 µM); against Nakaseomyces glabratus, 4 µg/mL (≈ 7.6 µM); against Candida parapsilosis, 0.25 µg/mL (≈ 0.475 µM); against Candida albicans [1], 0.5 µg/mL (≈ 0.95 µM); against Candida albicans [2], 1 µg/mL (≈ 1.9 µM); against Aspergillus fumigatus it was over 8 µg/mL.
`O=c1n(-c2ccc(C(F)(F)C(O)(Cn3cnnn3)c3ccc(F)cc3F)nc2)cnn1CC1CCCCC1` (stereo not drawn): the MIC80 is 4 µg/mL (≈ 7.51 µM) against Nannizzia gypsea; 2 µg/mL (≈ 3.76 µM) with Trichophyton rubrum; 1 µg/mL (≈ 1.88 µM) in the assay with Cryptococcus neoformans; 1 µg/mL (≈ 1.88 µM) in the assay with Nakaseomyces glabratus; 0.25 µg/mL (≈ 0.469 µM) in the assay with Candida parapsilosis; 1 µg/mL (≈ 1.88 µM) against Candida albicans [1]. In addition, the figures for the MIC80 against Candida albicans [2] and with Aspergillus fumigatus were 0.5 µg/mL (≈ 0.939 µM) and over 64 µg/mL, respectively.
Regarding `O=c1n(-c2ccc(C(F)(F)C(O)(Cn3cnnn3)c3ccc(F)cc3F)nc2)cnn1C1CCCCCCC1` (stereo not drawn), the MIC80 in the assay with Nannizzia gypsea is over 64 µg/mL; against Trichophyton rubrum it was 1 µg/mL (≈ 1.83 µM); in the assay with Cryptococcus neoformans, 2 µg/mL (≈ 3.66 µM); against Nakaseomyces glabratus, 4 µg/mL (≈ 7.32 µM); in the assay with Candida parapsilosis, 2 µg/mL (≈ 3.66 µM); in the assay on Candida albicans [1], 2 µg/mL (≈ 3.66 µM). The MIC80 in the assay on Candida albicans [2] is 1 µg/mL (≈ 1.83 µM); in the assay with Aspergillus fumigatus it was over 64 µg/mL.
Regarding `CS(=O)(=O)CCn1ncn(-c2ccc(C(F)(F)C(O)(Cn3cnnn3)c3ccc(F)cc3F)nc2)c1=O` (stereo not drawn), the MIC80 in the assay with Cryptococcus neoformans, with Nakaseomyces glabratus, against Candida parapsilosis, against Candida albicans [1], with Candida albicans [2] and against Aspergillus fumigatus was over 8 µg/mL in each case.
With `O=c1n(-c2ccc(C(F)(F)C(O)(Cn3cnnn3)c3ccc(F)cc3F)nc2)cnn1Cc1ccc(Cl)cc1` (stereo not drawn), the MIC80 in the assay on Cryptococcus neoformans is 1 µg/mL (≈ 1.78 µM); with Nakaseomyces glabratus, 2 µg/mL (≈ 3.57 µM); in the assay on Candida parapsilosis it was 0.5 µg/mL (≈ 0.891 µM); against Candida albicans [1] it was 1 µg/mL (≈ 1.78 µM); in the assay on Candida albicans [2] it was 1 µg/mL (≈ 1.78 µM); with Aspergillus fumigatus, over 8 µg/mL.
As for `O=c1n(-c2ccc(C(F)(F)C(O)(Cn3cnnn3)c3ccc(F)cc3F)nc2)cnn1Cc1ccncc1` (stereo not drawn), the MIC80 in the assay with Cryptococcus neoformans was 2 µg/mL (≈ 3.79 µM); in the assay with Nakaseomyces glabratus, 4 µg/mL (≈ 7.58 µM); with Candida parapsilosis, 8 µg/mL (≈ 15.2 µM); in the assay on Candida albicans [1] it was 4 µg/mL (≈ 7.58 µM); in the assay with Candida albicans [2], 4 µg/mL (≈ 7.58 µM); with Aspergillus fumigatus it was over 64 µg/mL.
